The results in this text go back to US5250542A, “Peripherally selective piperidine carboxylate opioid antagonists” (Eli Lilly and Company, priority 1992, dated 1993).

The target of one assay is T1, opioid receptor (Mus musculus, UniProt P42866).
T1 construct: Five CF-1 male mice (Charles River, Portage, Mich.); from tissue; host or cells: living CF-1 male mice (in vivo test; endogenous receptor)
Description: mouse writhing analgesis test: block of morphine-induced analgesia. It counts as in vivo, CF-1 male mice. Particulars: dose of antagonist that reduced the inhibition of writhing produced by 1.25 mg/kg morphine sulfate to 50%; subcutaneous, 20 min before acetic acid. Also on record: unit not given here. The gist of the method:
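Male CF-1 mice (~20 g, fasted overnight, n=5) dosed subcutaneously 20 min before i.p. 0.6% acetic acid; writhes counted for 10 min starting 5 min post-injection. Antagonism measured as blockade of morphine-induced inhibition of writhing, percent versus vehicle controls; ED50 defined as 50% writhing inhibition.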
In general terms: An intraperitoneal irritant provokes the stretching counted in writhing tests.

In another assay the target is T2, mu receptor (Rattus norvegicus, UniProt P33535).
T2 construct: rat whole brain minus cerebellum for mu was homogenized; from tissue; host or cells: brain of male Sprague Dawley rats, whole brain minus cerebellum, homogenate fraction
T2 sequence (P33535 whole entry): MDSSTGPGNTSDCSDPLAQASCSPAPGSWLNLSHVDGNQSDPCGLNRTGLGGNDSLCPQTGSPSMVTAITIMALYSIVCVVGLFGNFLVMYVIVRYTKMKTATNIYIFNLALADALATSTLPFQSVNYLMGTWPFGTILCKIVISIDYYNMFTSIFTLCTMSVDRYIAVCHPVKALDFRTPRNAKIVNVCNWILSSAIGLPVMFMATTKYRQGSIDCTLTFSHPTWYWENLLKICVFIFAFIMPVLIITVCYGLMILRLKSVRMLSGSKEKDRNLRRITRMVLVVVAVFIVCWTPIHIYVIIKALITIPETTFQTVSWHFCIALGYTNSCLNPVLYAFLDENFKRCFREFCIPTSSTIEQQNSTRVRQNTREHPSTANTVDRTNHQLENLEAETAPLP
The assay is described as follows: opioid receptor binding assay, [3H] NAL (tritiated naloxone), mu receptor. Further details: species or system rat (Male Sprague Dawley), brain minus cerebellum. To be noted: for inhibition at 0.01 µM / inhibition at 0.1 µM: 20 min. In outline: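 Displacement of [3H]naloxone was measured on rat whole brain minus cerebellum membranes, preincubated 20 min and incubated 20 min at 37° C, with filtration separating bound ligand. Ki was derived from IC50 and ligand KD. Percent displacement was also recorded at 10 nM and 100 nM test compound.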

Assay [1] has as its target T3, peripheral opioid receptors (Mus musculus, UniProt P42866).
T3 construct: Mice maintained (6 mice/cage) on 0.01M saccharin water with 1 g/1 morphine sulfate; from tissue; host or cells: living morphine-maintained mice (in vivo test; endogenous receptor)
The assay is described as follows: precipitated diarrhea in morphine-maintained mice (peripheral opioid activity) and comparison with the writhing test. It counts as in vivo. To be noted: for Ratio (AD50 mouse writhing test / ED50 mouse diarrhea test): higher ratio = greater relative antagonism of peripheral opioid receptors; for ED50: mouse, 0.5 h, morphine-maintained mice, antagonist subcutaneous or oral, 30 min observation. The gist of the method:
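Morphine-dependent mice (1 g/l morphine sulfate in drinking water ≥10 days, withdrawn 45 min before dosing) received antagonist subcutaneously or orally, 5 mice/dose. Diarrhea (and jumping) were scored over 30 min and doses lowered to find the diarrhea threshold. Peripheral selectivity was taken as writhing AD50 divided by diarrhea ED50.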

[2] abbreviates: read-out: % displacement at 10 nM, 10 nM test compound, [3H] naloxone 0.5 nM.
Where [3] appears, read: read-out: % displacement at 100 nM, 100 nM test compound, [3H] naloxone 0.5 nM.
[4] abbreviates: 10 nM test compound, [3H] naloxone 0.5 nM, read-out: % displacement at 10 nM.
The mark [5] stands for this setting: 100 nM test compound, [3H] naloxone 0.5 nM, read-out: % displacement at 100 nM.
[6] abbreviates: read-out: % displacement at 100 nM.

Structures can show the parent of a compound that is named as a salt. Where two headings read alike, the source gives them in different places.

By Ki is commonly meant the dissociation constant of the complex between target and ligand, obtained from inhibition or displacement. Usually ED50 stands for the dose that gives a 50% effect, or the effect in half of the subjects.

T3 sequence (P42866 whole entry): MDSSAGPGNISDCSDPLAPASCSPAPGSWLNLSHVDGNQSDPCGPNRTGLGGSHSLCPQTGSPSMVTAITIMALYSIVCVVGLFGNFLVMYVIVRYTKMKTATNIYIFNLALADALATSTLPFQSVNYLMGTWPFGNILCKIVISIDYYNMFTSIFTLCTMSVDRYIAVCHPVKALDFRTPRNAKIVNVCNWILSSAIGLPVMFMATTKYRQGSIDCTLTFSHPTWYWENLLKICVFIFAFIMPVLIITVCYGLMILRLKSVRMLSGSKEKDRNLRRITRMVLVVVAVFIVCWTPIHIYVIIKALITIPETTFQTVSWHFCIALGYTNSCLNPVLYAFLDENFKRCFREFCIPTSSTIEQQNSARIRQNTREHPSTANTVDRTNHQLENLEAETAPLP
T1 sequence (P42866 whole entry): as above

With `C[C@H]1CN(CC(Cc2ccccc2)C(=O)N(C)CC(=O)O)CC[C@@]1(C)c1cccc(O)c1` (relative stereo) [Example 66, [[2-[[4-(3-hydroxyphenyl)-3,4-dimethyl-1-piperidinyl]methyl]-1-oxo-3-phenylpropyl]-methylamino]acetic acid monohydrate], on opioid receptor, the AD50 is on record as 14.0. Further, the Ki on mu receptor amounted to 1.96 nM. At mu receptor (setting [2]), the inhibition at 0.01 µM amounted to 70%. In addition, the inhibition at 0.1 µM at mu receptor (setting [3]) turned out to be 85%. In assay [1], the “Ratio (AD50 mouse writhing test / ED50 mouse diarrhea test)” value was under 4.7 and the ED50 is under 3 mg/kg.

On opioid receptor, `CCOC(=O)CNC(=O)CNC(=O)C(Cc1ccccc1)CN1CC[C@@](C)(c2cccc(O)c2)[C@@H](C)C1` (relative stereo) [Example 67, [[2-[2-[4-(3-hydroxyphenyl)-3,4-dimethyl-1-piperidinyl]methyl]-3-phenyl-1-oxopropyl]-amino]acetyl]amino]acetic acid ethyl ester monohydrochloride] came in with an AD50 of 5.5. The molecule further yielded a Ki on mu receptor of 0.37 nM. Also, the inhibition at 0.01 µM on mu receptor (setting [2]) stood at 79%. The inhibition at 0.1 µM on mu receptor (setting [3]) turned out to be 91%. Besides, in assay [1], the “Ratio (AD50 mouse writhing test / ED50 mouse diarrhea test)” value is 36 and the ED50 worked out at 0.15 mg/kg.

In the case of `C[C@H]1CN(CC(Cc2ccccc2)C(=O)NCC(=O)NCC(=O)O)CC[C@@]1(C)c1cccc(O)c1` (relative stereo) [Example 68, N-(carboxylmethyl-)-2-[[3-[4-(3-hydroxyphenyl)-3,4-dimethyl-1-piperidinyl]-2-(phenylmethyl)-1-oxopropyl]amino]acetamide monohydrate], at opioid receptor, the AD50 is over 40. For the same molecule, the Ki on mu receptor was determined as 1.51 nM. Further, on mu receptor (setting [2]), the inhibition at 0.01 µM is 79%. In addition, at mu receptor (setting [3]), the inhibition at 0.1 µM stood at 86%. In addition, in assay [1], the “Ratio (AD50 mouse writhing test / ED50 mouse diarrhea test)” value is listed as over 174 and the ED50 worked out at 0.23 mg/kg.

Turning to `C[C@H]1CN(CC(Cc2ccccc2)C(=O)NCCN(C)C)CC[C@@]1(C)c1cccc(O)c1` (relative stereo) [Example 69, N-[2-(dimethylamino)ethyl]-3-[4-(3-hydroxyphenyl)-3,4-dimethyl-1-piperidine]-2-phenylmethylpropanamide dihydrochloride], the AD50 at opioid receptor is given as 30. On mu receptor (setting [4]), the inhibition at 0.01 µM came to 57%. Moreover, the inhibition at 0.1 µM on mu receptor (setting [5]) is 89%. Besides, in assay [1], the “Ratio (AD50 mouse writhing test / ED50 mouse diarrhea test)” value is 51 and the ED50 is 1.7 mg/kg.

Take `CCc1noc(CNC(=O)C(Cc2ccccc2)CN2CC[C@@](C)(c3cccc(O)c3)[C@@H](C)C2)n1` (relative stereo) [Example 71, 3-[4-(3-hydroxyphenyl)-3,4-dimethyl1-piperidinyl]-2-(phenylmethyl)-N-[(3-ethyl-1,2,4-oxadiazol-5-yl)methyl]propanamide]: at opioid receptor, the AD50 is recorded as 2.1. The molecule also returned a Ki at mu receptor of 0.71 nM. The inhibition at 0.01 µM on mu receptor (setting [2]) was determined as 81%. Also, the inhibition at 0.1 µM on mu receptor (setting [6]) was found to be 94%. Besides, in assay [1], the “Ratio (AD50 mouse writhing test / ED50 mouse diarrhea test)” value is on record as 11 and the ED50 is 0.19 mg/kg.

The molecule `C[C@H]1CN(CC(Cc2ccccc2)C(=O)NCC(=O)NCC(=O)NCc2ccccc2)CC[C@@]1(C)c1cccc(O)c1` (relative stereo) [Example 73] had an AD50 on opioid receptor of 20. At mu receptor, the affinity, expressed as Ki, was 1.8 nM. On mu receptor (setting [2]), the inhibition at 0.01 µM came out at 84%. Also, the inhibition at 0.1 µM on mu receptor (setting [3]) was found to be 90%. In assay [1], the “Ratio (AD50 mouse writhing test / ED50 mouse diarrhea test)” value is given as 11 and the ED50 is 1.73 mg/kg.

At opioid receptor, `CCOC(=O)CN(C)C(=O)CNC(=O)C(Cc1ccccc1)CN1CC[C@@](C)(c2cccc(O)c2)[C@@H](C)C1` (relative stereo) [Example 75] showed an AD50 of 5.2. The same molecule registered a Ki at mu receptor of 1.15 nM. The inhibition at 0.01 µM at mu receptor (setting [2]) worked out at 90%. On mu receptor (setting [3]), the inhibition at 0.1 µM stood at 99%. Besides, in assay [1], the “Ratio (AD50 mouse writhing test / ED50 mouse diarrhea test)” value was found to be 71 and the ED50 is 0.073 mg/kg.

For `CCNC(=O)CNC(=O)CNC(=O)C(Cc1ccccc1)CN1CC[C@@](C)(c2cccc(O)c2)[C@@H](C)C1` (relative stereo) [Example 77], on opioid receptor, the AD50 is reported as over 40. The same molecule registered an inhibition constant Ki on mu receptor of 1.35 nM. The inhibition at 0.01 µM at mu receptor (setting [2]) turned out to be 88%. The inhibition at 0.1 µM at mu receptor (setting [3]) turned out to be 95%. Also, in assay [1], the “Ratio (AD50 mouse writhing test / ED50 mouse diarrhea test)” value is listed as over 31 and it took a dose of 1.31 mg/kg to reach the 50% effect level (ED50).

`COC(=O)COC(=O)CNC(=O)C(Cc1ccccc1)CN1CC[C@@](C)(c2cccc(O)c2)[C@@H](C)C1` (relative stereo) [Example 85] gave an AD50 on opioid receptor of 9.5. In addition, the inhibition at 0.01 µM at mu receptor (setting [4]) is 93%. Further, the inhibition at 0.1 µM at mu receptor (setting [6]) came to 98%. Also, in assay [1], the “Ratio (AD50 mouse writhing test / ED50 mouse diarrhea test)” value is reported as 190 and the ED50 was found to be 0.05 mg/kg.

As for `CCCCCOC(=O)CNC(=O)C(Cc1ccccc1)CN1CC[C@@](C)(c2cccc(O)c2)[C@@H](C)C1` (relative stereo) [Example 86], on opioid receptor, the AD50 was over 40. Besides, on mu receptor (setting [4]), the inhibition at 0.01 µM was 74%. Moreover, the inhibition at 0.1 µM at mu receptor (setting [5]) came to 91%. In assay [1], the “Ratio (AD50 mouse writhing test / ED50 mouse diarrhea test)” value is over 2353 and it took a dose of 0.017 mg/kg to reach the 50% effect level (ED50).

For `C[C@H]1CN(CC(Cc2ccccc2)C(=O)NCC(=O)OCC(N)=O)CC[C@@]1(C)c1cccc(O)c1` (relative stereo) [Example 87], on opioid receptor, the AD50 came out at 19. Besides, on mu receptor (setting [4]), the inhibition at 0.01 µM was 94%. In addition, the inhibition at 0.1 µM on mu receptor (setting [5]) was 99%. Also, in assay [1], the “Ratio (AD50 mouse writhing test / ED50 mouse diarrhea test)” value amounted to 27 and the ED50 stood at 0.71 mg/kg.

`CNC(=O)COC(=O)CNC(=O)C(Cc1ccccc1)CN1CC[C@@](C)(c2cccc(O)c2)[C@@H](C)C1` (relative stereo) [Example 88]: the AD50 on opioid receptor worked out at 13.5. Moreover, the inhibition at 0.01 µM on mu receptor (setting [4]) came out at 93%. At mu receptor (setting [5]), the inhibition at 0.1 µM stood at 99%. In assay [1], the “Ratio (AD50 mouse writhing test / ED50 mouse diarrhea test)” value came to 193 and the ED50 was 0.07 mg/kg.

Turning to `CCNC(=O)COC(=O)CNC(=O)C(Cc1ccccc1)CN1CC[C@@](C)(c2cccc(O)c2)[C@@H](C)C1` (relative stereo) [Example 89], the AD50 at opioid receptor amounted to 6.0. In addition, on mu receptor (setting [4]), the inhibition at 0.01 µM was 94%. Further, the inhibition at 0.1 µM on mu receptor (setting [5]) came out at 99%. For the same molecule, in assay [1], the “Ratio (AD50 mouse writhing test / ED50 mouse diarrhea test)” value is on record as under 1 and the ED50 was over 10 mg/kg.

At opioid receptor, `C[C@H]1CN(CC(Cc2ccccc2)C(=O)NCC(=O)OCC(=O)N(C)C)CC[C@@]1(C)c1cccc(O)c1` (relative stereo) [Example 90] showed an AD50 of 2.2. Also, at mu receptor (setting [4]), the inhibition at 0.01 µM came to 93%. At mu receptor (setting [5]), the inhibition at 0.1 µM is 99%. Moreover, in assay [1], the “Ratio (AD50 mouse writhing test / ED50 mouse diarrhea test)” value amounted to 22 and the ED50 was 0.1 mg/kg.

`C[C@H]1CN(CC(Cc2ccccc2)C(=O)NCC(=O)NCC2CCCCC2)CC[C@@]1(C)c1cccc(O)c1` (relative stereo) [Example 91] registered an AD50 at opioid receptor of 4.0. In addition, the inhibition at 0.01 µM on mu receptor (setting [4]) stood at 69%. Further, at mu receptor (setting [6]), the inhibition at 0.1 µM came out at 94%. In addition, in assay [1], the “Ratio (AD50 mouse writhing test / ED50 mouse diarrhea test)” value came out at 8 and it took a dose of 0.5 mg/kg to reach the 50% effect level (ED50).

Turning to `COC1CCC(OC(=O)CNC(=O)C(Cc2ccccc2)CN2CC[C@@](C)(c3cccc(O)c3)[C@@H](C)C2)CC1` (relative stereo) [Example 92], the AD50 on opioid receptor was determined as 7.7. The inhibition at 0.01 µM on mu receptor (setting [4]) worked out at 85%. On mu receptor (setting [6]), the inhibition at 0.1 µM was found to be 97%. In assay [1], the “Ratio (AD50 mouse writhing test / ED50 mouse diarrhea test)” value is recorded as 1540 and it took a dose of 0.005 mg/kg to reach the 50% effect level (ED50).
